Data taken from patent publication US20060211684A1, “Use of alpha-2 adrenergic receptor agonists” (Perlegen Sciences, Inc., priority 2005, published 2006).
Where two headings read alike, the source gives them in different places.

Tests used:
[1] = test system: transverse aortic constricted α2C−/−mice
Method: This example tests whether treatment of α2C−/−knockout transgenic mice with the partial α2A agonist, clonidine, improves cardiac function and reduces ventricular hypertrophy after left ventricular pressure overload. In other words, the example tests whether clonidine-mediated activation of α2A-receptors compensates for the loss of functional α2C. The mice used in this experiment are described in more detail in Brede et al., Circulation 106, 2491-2496 (2002). […] Mice were treated with 200 μg/kg/day clonidine or vehicle for four weeks. Three mice were treated with clonidine and three with vehicle in the initial experiment.

[2] = cited from earlier work
[3] = after ingestion; cited from earlier work
[4] = cited from earlier work; remark: listed apart in the source
[5] = initial experiment, 200 μg/kg/day for four weeks, three mice clonidine, three vehicle, FIG. 1
[6] = second experiment, 200 μg/kg/day for 4 weeks via osmotic minipumps, n=5 clonidine, n=6 vehicle

Structure (SMILES): Clc1cccc(Cl)c1NC1=NCCN1 [clonidine, N-(2,6-dichlorophenyl)-4,5-dihydro-1 H-imidazol-2-amine]
- hypertrophy ([1]; FIGS. 1 and 2): prevents and reduces
- left ventricular systolic pressures ([1]; FIGS. 1 and 2): slightly reduced
- ventricular contractility ([1]; FIGS. 1 and 2): maintained
- contractility of the heart [1, 5]: did not effect
- left ventricular systolic pressure [1, 5]: reduced
- ventricular hypertrophy [1, 5]: reduced
- contractility of the heart [1, 6]: did not effect
- left ventricular systolic pressure [1, 6]: reduced
- ventricular hypertrophy [1, 6]: reduced
- side effects ([2]; therapeutic doses typically used (0.2-0.9 mg/day)): dryness of the mouth, dizziness, sedation, and constipation
- toxic effects ([2]; toxic doses, children and adults): serious cardiopulmonary instability and central nervous system depression
- onset of antihypertensive effects [3]: 30 to 60 min
- time to peak plasma concentrations ([4]; after a single oral dose): 3 to 5 h
- CNS penetration ([4]; because of lipid solubility): excellent
- time to steady state levels ([4]; dermal application): several days
- absorption from the gastrointestinal tract ([4]; in vivo): rapidly absorbed
- elimination ([4]; in vivo): excreted unchanged in the urine and metabolized by the liver
